From patent US20070248646A1, “Use of azurocidin inhibitors in prevention and treatment of ocular vascular leakage” (priority 2006, published 2007)

Test system: VEGF-induced blood retinal barrier breakdown
Experiment: VEGF-induced blood retinal barrier breakdown (Evans Blue)
Assay type: in vivo, Brown Norway rats
Description: This study employed Brown Norway rats, AZ (1 μg, 10 μg, 20 μg), PBS, aprotinin, VEGF164, and polyclonal anti-AZ antibody (1 μg). Briefly, Brown Norway rats received intravitreal injections of AZ (1 μg, 10 μg and 20 μg) in one eye and PBS in the contralateral eye. BRB breakdown was quantified using the Evans Blue (EB) technique at 1 hour, 3 hours, and 24 hours after intravitreal injection of AZ or PBS. To assess whether AZ induced retinal leukostasis, firm leukocyte adhesion was quantified at 3 hours and 24 hours post AZ injection (10 μg) using the ex vivo conconavalin leukostasis assay. To block AZ, rats were treated with a single intravenous injection of aprotinin (30,000KIU), prior to the intravitreal injections. To investigate whether AZ was involved in VEGF-induced BRB breakdown, rats received intravitreal injections of 50 ng recombinant mouse VEGF164 in one eye and PBS in the other eye and were treated intravenously with aprotinin (50,000KIU every eight hours) or polyclonal anti-AZ antibody (1 μg). BRB breakdown and retinal leukostasis were quantified 24 hours after VEGF injection.
Rats received intravitreous injections of 5 μl of sterile phosphate-buffered saline (PBS) containing 50 ng VEGF164 (R&D Systems, Minneapolis, Minn.) in one eye and 5 μl of sterile phosphate-buffered saline (PBS) in the contralateral eye. The retinas were analyzed for leakage 24 hours after VEGF injection.
In a second group, the rats were additionally treated intravenously with aprotinin (Trasylol®, Bayer Pharmaceuticals). 50,000KIU of aprotinin (5 ml of Trasylol®) was administered intravenously through the tail vein 1 hour before, as well as 8 hours and 16 hours after, the intravitreal injection of VEGF. The retinas were analyzed 24 hours after VEGF administration.
In a third group, rats were treated with intravitreous injections of 1 μg of goat anti-human azurocidin polyclonal antibody (5 μl of a 200 μg/ml antibody solution, Santa Cruz biotechnology) or control goat isotype IgG (R&D system) in the VEGF injected eye 6 hours after VEGF administration.
Retinal vascular permeability was quantified as previously described (Qaum et al. (2002) supra, Xu et al. (2001) INVEST. OPHTHALMOL. VIS. SCI. 42; 789-94). After the animals were deeply anesthetized, Evans blue dye (Sigma) dissolved in normal saline (30 mg/ml) was injected through the tail vein over 10 seconds at a dosage of 45 mg/kg. Blood samples were obtained from the left ventricle, just before perfusion at 2 hours, to obtain the time-average Evans blue dye plasma concentration. These blood samples were centrifuged at 12,000 rpm for 15 minutes and diluted to 1/10,000th of their initial concentration in formamide (Sigma). The background-subtracted absorbance was determined by measuring each sample at 620 nm (the absorbance maximum for Evans blue dye in formamide) and 740 nm (the absorbance minimum) with a spectrophotometer. The concentration of dye in the plasma was calculated from a standard curve of Evans blue dye in formamide. After the dye had circulated for 2 hours, the chest cavity was opened, and the rats were perfused through the left ventricle with 1% paraformaldehyde in citrate buffer (0.05 M, pH 3.5) at a physiological pressure of 120 mm Hg. The retinas were then carefully dissected under an operating microscope. After measurement of the retinal weight, Evans blue dye was extracted by incubating each retina in 0.180 ml of formamide for 18 hours at 70° C. The extract was ultracentrifuged at a speed of 14,000 rpm for 60 minutes at 25° C. Sixty microliters of the supernatant was used for spectrophotometric measurement at 620 nm and 740 nm. The background-subtracted absorbance was determined by measuring each sample at 620 nm (the absorbance maximum for Evans blue dye in formamide) and 740 nm (the absorbance minimum). The concentration of dye in the extracts was calculated from a standard curve of Evans blue dye in formamide. […]

aprotinin
BRB breakdown as percentage of the value in control eyes (24 hours after intravitreal 50 ng VEGF): 110%±21 | Evans Blue retinal leakage in VEGF-injected eye (24 hours after intravitreal 50 ng VEGF, PBS eye 9.6±1.4 (VEGF alone), 5.4±1.4 (with aprotinin)): 6.2±1.5 μl plasma/g retina/h | fold increase in retinal vascular leakage compared to the PBS injected eye (24 hours after intravitreal 50 ng VEGF, aprotinin i.v. 50,000KIU every eight hours, antibody 1 μg intravitreal 6 hours after VEGF): 1.1±0.21 fold | suppression of VEGF-induced blood retinal barrier breakdown (24 hours after intravitreal 50 ng VEGF, aprotinin i.v., antibody intravitreal 6 hours after VEGF): 95% | basal levels of retinal Evans Blue leakage (PBS-injected eye, i.v. aprotinin): did not reduce the basal levels of retinal Evans Blue leakage
